From BindingDB's records for doi:10.1021/jm00006a007 (Parke-Davis Pharmaceutical Research, 1995) come the findings set out here.

Each structure is given as a SMILES string.

For the assay, the target named is T1, Dimer of Gag-Pol polyprotein [489-587] (Human immunodeficiency virus 1, UniProt P12497).
T1 construct: 489-587
The assay is described as follows: Protease Inhibition Assay. The note with it: pH 4.7; 37 °C. How it is done:
For determination of IC50 values, HIV-1 protease was added to assay buffer containing inhibitor and the substrate (H-His-Lys-Ala-Arg-Val-Leu- (p-NO2) Phe-Glu-Ala-norleucine-Ser-NH2). The Leu- (p-NO2) Phe bond of the substrate was cleaved by the enzyme, and the substrate and products were separated by reversed-phase HPLC. Absorbance was measured at 220 nm, peak areas were determined, and percentage conversion to product was calculated.
In turn, `O=c1oc(-c2ccccc2)cc(O)c1CSc1ccccc1` [4-hydroxy-6-phenyl-3-[(phenylsulfanyl)methyl]-2H-pyran-2-one] returned an IC50 of 84300 nM.

`O=c1oc(-c2ccccc2)cc(O)c1C(Sc1ccccc1)c1ccc2ccccc2c1` (racemic) [4-hydroxy-3-[naphthalen-2-yl(phenylsulfanyl)methyl]-6-phenyl-2H-pyran-2-one] came in with an IC50 of 7820 nM.

On to `O=c1oc(-c2ccccc2)cc(O)c1C(SC1CCCCC1)c1ccccc1` (stereo not drawn) [3-[(cyclohexylsulfanyl)(phenyl)methyl]-4-hydroxy-6-phenyl-2H-pyran-2-one], for which the IC50 is 480 nM.

Take `O=c1oc(-c2ccccc2)cc(O)c1C(SCc1ccccc1)c1ccccc1` (racemic) [3-[(benzylsulfanyl)(phenyl)methyl]-4-hydroxy-6-phenyl-2H-pyran-2-one]: the midpoint of inhibition, the IC50, lay at 480 nM.

As to `O=c1oc(-c2ccccc2)cc(O)c1C(CC1CCCC1)SC1CCCCC1` (racemic) [3-[1-(cyclohexylsulfanyl)-2-cyclopentylethyl]-4-hydroxy-6-phenyl-2H-pyran-2-one], half-maximal inhibition (IC50) was put at 541 nM. The IC50 values of the last two molecules are within 1.5-fold of each other.

As to `O=c1oc(-c2ccccc2)cc(O)c1C(SC1CCCC1)C1CCCC1` (racemic) [3-[cyclopentyl(cyclopentylsulfanyl)methyl]-4-hydroxy-6-phenyl-2H-pyran-2-one], half-maximal inhibition (IC50) was put at 225 nM.

Consider `CC(C)CC(SC1CCCC1)c1c(O)cc(-c2ccccc2)oc1=O` (racemic) [(+/-)-3-[1-(Cyclopentylthio)-3-methylbutyl]-4-hydroxy-6-phenyl-2H-pyran-2-one], for which the inhibitory constant (Ki) was 33 nM.

`O=c1oc(-c2ccccc2)cc(O)c1C(CC1CC1)SC1CCCC1` (racemic) [3-[1-(cyclopentylsulfanyl)-2-cyclopropylethyl]-4-hydroxy-6-phenyl-2H-pyran-2-one]: the IC50 is 69 nM.

Consider `O=c1oc(-c2ccccc2)cc(O)c1C(Sc1ccccc1)c1ccccc1` (racemic) [(+/-)-4-Hydroxy.6-phenyl-3-[phenyl(phenylthio)methyl]-2H-pyran-2-one], for which it took 780 nM to reach half-maximal inhibition (IC50).

In turn, `O=c1oc(-c2ccccc2)cc(O)c1C(Sc1ccccc1)C1CCCCC1` (racemic) [(+/-)-3-[Cyclohexyl(phenylthio)methyl]-4-hydroxy-phenyl-2H-pyran-2-one] came in with a half-inhibitory concentration (IC50) of 2440 nM.

As for `O=c1oc(-c2ccccc2)cc(O)c1C(CC1CC1)SC1CCCCC1` (racemic) [3-[1-(cyclohexylsulfanyl)-2-cyclopropylethyl]-4-hydroxy-6-phenyl-2H-pyran-2-one], the IC50 came to 147 nM. This IC50 is about 17-fold lower than that of the molecule before.

For `O=c1oc(-c2ccccc2)cc(O)c1C(CC1CC1)SCc1ccccc1` (racemic) [3-[1-(benzylsulfanyl)-2-cyclopropylethyl]-4-hydroxy-6-phenyl-2H-pyran-2-one], the 50% inhibitory concentration (IC50) came to 84 nM.

For `O=c1oc(-c2ccccc2)cc(O)c1C(Sc1ccc2ccccc2c1)c1ccccc1` (racemic) [4-hydroxy-3-[(naphthalen-2-ylsulfanyl)(phenyl)methyl]-6-phenyl-2H-pyran-2-one], it took 2450 nM to reach half-maximal inhibition (IC50). This IC50 is about 29-fold higher than that of the molecule before.

By IC50 is commonly meant the concentration needed to halve the response being measured. A low value points to greater potency in that assay. Usually Ki stands for a measure of affinity in units of concentration, obtained from inhibition or displacement.
